Assay results from patent publication US20100137315A1, “Sphingosine Kinase Inhibitors and Methods of Their Use” (APOGEE BIOTECHNOLOGY CORPORATION, priority 2005, published 2010).
Where two headings read alike, the source gives them in different places.

Key:
[1] = test system: MCF-7 human breast adenocarcinoma cells; experiment: Cytotoxicity, SRB assay, 48 h; format: cell-based; conditions: Homo sapiens, MCF7
Procedure: (§1) To further assess the biological efficacies of the Compounds in intact cells, each Compound was evaluated for cytotoxicity using human cancer cell lines. These experiments followed methods that have been extensively used. Cell lines tested included MCF-7 human breast adenocarcinoma cells. The indicated cell lines were treated with varying doses of the test Compound for 48 h. Cell survival was then determined using the SRB binding assay (Skehan et al., 1990, J Natl Cancer Inst 82: 1107), and the concentration of compound that inhibited proliferation by 50% (the IC50) was calculated. Values (in μM) represent the mean±sd for replicate trials.

[2] = test system: Caco-2 (colon); experiment: Cytotoxicity, sulforhodamine B, 48 h; format: cell-based; conditions: Homo sapiens, mean ± sd
[3] = test system: Hep-G2 (liver); experiment: Cytotoxicity, sulforhodamine B, 48 h; format: cell-based; conditions: Homo sapiens, HepG2, mean ± sd
[4] = test system: 1025LU (Melanoma); experiment: Cytotoxicity, sulforhodamine B, 48 h; format: cell-based; conditions: Homo sapiens, mean ± sd
Procedure: as §1

[5] = test system: A-498 (Kidney); experiment: Cytotoxicity, sulforhodamine B, 48 h; format: cell-based; conditions: Homo sapiens, A498, mean ± sd
Procedure: as §1

[6] = test system: DU145 (prostate); experiment: Cytotoxicity, sulforhodamine B, 48 h; format: cell-based; conditions: Homo sapiens, DU-145, mean ± sd
Procedure: as §1

[7] = test system: HT-29 (colon); experiment: Cytotoxicity, sulforhodamine B, 48 h; format: cell-based; conditions: Homo sapiens, mean ± sd
Procedure: as §1

[8] = test system: MDA-MB-231 (breast, ER−); experiment: Cytotoxicity, sulforhodamine B, 48 h; format: cell-based; conditions: Homo sapiens, mean ± sd
Procedure: as §1

[9] = test system: SK-OV-3 (ovary); experiment: Cytotoxicity, sulforhodamine B, 48 h; format: cell-based; conditions: Homo sapiens, mean ± sd
Procedure: as §1

[10] = test system: Panc-1 (pancreas); experiment: Cytotoxicity, sulforhodamine B, 48 h; format: cell-based; conditions: Homo sapiens, mean ± sd
[11] = test system: T24 (bladder); experiment: Cytotoxicity, sulforhodamine B, 48 h; format: cell-based; conditions: Homo sapiens, mean ± sd
[12] = physchem; format: physicochemical; conditions: aqueous with cosolvent or surfactant or cyclodextrin, in DMSO: PBS (IP) or PEG400 (oral)
[13] = test system: female Swiss-Webster mice; experiment: In vivo toxicity in mice; conditions: orally up to at least 100 mg/kg
[14] = test system: JC murine adenocarcinoma cells in Balb/c mice; experiment: JC mammary adenocarcinoma syngeneic tumor model; format: in vivo; conditions: for inhibition of tumor growth relative to controls: 50 mg/kg IP every-other day, Balb/c mice; for In vivo activity: JC tumor model, intraperitoneal (ip) or oral (po)
Procedure: FIG. 1. Inhibition of tumor growth by SK inhibitors. Balb/c female mice were injected subcutaneously with JC murine adenocarcinoma cells suspended in PBS. After palpable tumor growth, animals were treated by intraperitoneal injection of either 0.1 mL of 50% DMSO (control, circles) or 50 mg/kg of Compound 8 (squares) or Compound 73 (triangles) on odd numbered days. Whole body weight and tumor volume measurement were performed for up to 18 days. * p<0.05. Inset: Averaged body weights of mice from each group during course of study.
FIG. 2. Dose-response relationships for inhibition of tumor growth by Compound 8. Balb/c female mice were injected subcutaneously with JC cells suspended in PBS. After palpable tumor growth, animals were treated by oral gavage of either 100 μl of PEG400 (control, circles) or Compound 8 at 3.5 mg/kg (diamonds), 10 mg/kg (inverted triangles), 35 mg/kg (triangles) or 100 mg/kg (squares) on odd numbered days. Whole body weight and tumor volume measurement were performed for up to 18 days.
The SK inhibitors Compounds 8 and 73 were dissolved in 50% DMSO and administered by intraperitoneal injection to mice every-other day at a dose of 50 mg/kg. Body weights and tumor volumes were monitored daily.

[15] = test system: C57BL/6 mice; experiment: Acute DSS-colitis model of IBD; format: in vivo, mouse; conditions: 2% DSS, 50 mg/kg oral daily
Procedure: FIG. 4. Effects of Compound 8 and Dipentum on the DAI in the acute DSS-colitis model. C57BL/6 mice were treated for 6 days as follows: normal drinking water and daily oral administration of PEG (No DSS), 2% DSS in the drinking water and daily oral administration of PEG (DSS alone); 2% DSS in the drinking water and daily oral administration of 50 mg/kg Compound 8 in PEG (DSS+Compound 8), or 2% DSS in the drinking water and daily oral administration of 50 mg/kg Dipentum in PEG (DSS+Dipentum). On the indicated day, the Disease Activity Index was calculated for each group. Values represent the mean±sd for 5-6 mice per group.
FIG. 5. Effects of Compound 8 and Dipentum on colon length in the acute DSS-colitis model. Mice from the experiment described in FIG. 4 were sacrificed on Day 6, and the colon was harvested from each animal and measured. Data represent the mean±sd colon length.
FIG. 6. Effects of Compound 8 and Dipentum on neutrophil infiltration into the colon in the acute DSS-colitis model. Myeloperoxidase (MPO) activity from the colons of the animals described in FIG. 4 was measured. Values the mean±sd MPO activity in units per gram of tissue.
FIG. 7. Effects of Compound 8 and Dipentum on colonic cytokine levels in the acute DSS-colitis model. Colon samples from mice described in FIG. 4 were extracted and assayed for the levels of the indicated cytokines Values represent the mean±sd amount of each cytokine in 4-5 samples per group.
Experiments were conducted with SK inhibitors using the dextran sulfate sodium (DSS) model of IBD. In these experiments, male C57BL/6 mice were provided with standard rodent diet and water ad libitum. After their acclimation, the animals were randomly divided into groups of 5 or 6 for DSS (40,000 MW from ICN Biomedicals, Inc., Aurora, Ohio)— and drug-treatment. […] The body weight of each animal was measured each day, and the Disease Activity Index (DAI) was scored for each animal on Days 4-6. On Day 6, the animals were sacrificed by cervical dislocation and the entire colon was removed and measured to the nearest 0.1 cm.

[16] = Table 6, 48 h, SRB, inhibition of cell proliferation, read-out: MCF-7 IC50
[17] = Table 7, 48 hours, mean ± sd, read-out: IC50 (μM) MCF-7

Row | Compound | IC50 [1, 16] [µM] | IC50 [1, 17] [µM] | IC50 [2] [µM] | IC50 [3] [µM] | IC50 [4] [µM] | IC50 [5] [µM] | IC50 [6] [µM] | IC50 [7] [µM] | IC50 [8] [µM] | IC50 [9] [µM] | IC50 [10] [µM] | IC50 [11] [µM] | solubility ([12]; read-out: solubility) [mg/mL] | solubility ([12]; read-out: solubility (molar)) [mM] | toxicity, oral administration [13] | inhibition of tumor growth relative to controls [14] [%] | In vivo activity [14] | also measured
1 | Clc1ccc(-c2csc(NCc3ccccc3)n2)cc1 [Compound 73, Benzyl-[4-(4-chloro-phenyl)-thiazol-2-yl]-amine] | 8.3 | 1.8 ± 0.7 | 6.3 ± 5.2 | 13.8 ± 8.7 | 8.3 ± 2.4 | 4 ± 1.9 | 6.5 ± 3.6 | 29.9 ± 9.4 | 26.6 ± 6.7 | 10.2 ± 0.3 | 6.7 ± 2.4 | 22.7 ± 4.8 | ≥ 15 | 30 to 40 | without noticeable toxicity | 69 | active - ip | 
2 | CCCC(=O)Oc1ccc(C=CC(=O)Nc2nc(-c3ccc(Cl)cc3)cs2)cc1OC [Compound 8, Butyric acid 4-{2-[4-(4-chloro-phenyl)-thiazol-2-ylcarbamoyl]-vinyl}-2-methoxy-phenyl ester] | 6.6 | 25.2 ± 4.7 | 2.6 ± 1.2 | 81.5 ± 38.9 | 30.1 ± 3.9 | 38.3 ± 7.7 | 21.2 ± 1.3 | 54.7 ± 0.1 | 30.1 ± 3.9 | 23.7 ± 3.2 | 19 ± 2.5 | 25.2 ± 2.9 | ≥ 15 | 30 to 40 | without noticeable toxicity | 66 | active - ip and po | oral doses with antitumor activity ([14]; oral gavage 3.5-100 mg/kg on odd numbered days): ≥ 10 mg/kg; toxicity to the mice in the dose-response study ([14]; oral, any dose (3.5-100 mg/kg)): No toxicity; increase in colonic MPO activity [15]: markedly attenuated; colon length ([15]; Day 6): intermediate length; Disease Activity Index (DAI) ([15]; Days 4-6): reduced the intensity of the IBD manifestations
